This passage reports IC50 results from patent US10759794B2, “2-phenyl-3-(piperazinomethyl)imidazo[1,2-A]pyridine derivatives as blockers of task-1 and task-2 channels, for the treatment of sleep-related breathing disorders” (BAYER PHARMA AKTIENGESELLSCHAFT, priority 2015, dated 2020).

Molecules are shown by their SMILES.

As a reminder, the IC50 is the midpoint of a concentration-inhibition curve.

Common to all, as to format: cell-based
The target in assay [1] is T1, human TASK-3 (Homo sapiens (Human), UniProt Q9NPC2). Nature of the assay: Inhibition of recombinant TASK-3 in stably transfected CHO cells (voltage-sensitive dye, FLIPR). Particulars: depolarization induced by 40 mM potassium chloride, Table 2A. As for the experimental part:
(§1) B-2. Inhibition of Recombinant TASK-1 and TASK-3 In Vitro
(§2) The investigations on the inhibition of the recombinant TASK-1 and TASK-3 channels were carried out using stably transfected CHO cells. Here, the compounds according to the invention were tested with administration of 40 mM of potassium chloride in the presence of a voltage-sensitive dye using the method described in detail in the following references [Whiteaker et al., Validation of FLIPR membrane potential dye for high-throughput screening of potassium channel modulators, J. Biomol. Screen. 6 (5), 305-312 (2001); Molecular Devices FLIPR Application Note: Measuring membrane potential using the FLIPR® membrane potential assay kit on Fluorometric Imaging Plate Reader (FLIPR®) systems, http://www.moleculardevices.com/reagents-supplies/assay-kits/ion-channels/flipr-membrane-potential-assay-kits]. The activity of the test substances was determined as their ability to inhibit a depolarization induced in the recombinant cells by 40 mM potassium chloride. The concentration which can block half of this depolarization is referred to as IC50.

The target of assay [2] is T2, human TASK-1 (Homo sapiens (Human), UniProt O14649). Nature of the assay: Inhibition of recombinant TASK-1 in stably transfected CHO cells (voltage-sensitive dye, FLIPR). Particulars: depolarization induced by 40 mM potassium chloride, Table 2A. The protocol: as §1, §2
Assay [3] concerns the target T2, human TASK-1. Nature of the assay: Two-electrode voltage clamp analysis of human TASK-1 channels in Xenopus laevis oocytes. The conditions noted are these: Xenopus laevis oocytes, two-electrode voltage clamp, room temperature; Table 1A. As for the experimental part: (§3) B-1. In Vitro Electrophysiological Analysis of the Human TASK-1 and TASK-3 Channels Via Two-Electrode Voltage Clamp Technique in Xenopus laevis Oocytes
(§4) Xenopus laevis oocytes were selected as described elsewhere in an exemplary manner [Decher et al., FEBS Lett. 492, 84-89 (2001)]. Subsequently, the oocytes were injected with 0.5-5 ng of a cRNA solution coding for TASK-1 or TASK-3. For the electrophysiological analysis of the channel proteins expressed in the oocytes, the two-electrode voltage clamp technique [Stühmer, Methods Enzymol. 207, 319-339 (1992)] was used. The measurements were carried out as described [Decher et al., FEBS Lett. 492, 84-89 (2001)] at room temperature (21-22° C.) using a Turbo TEC 10CD amplifier (NPI), recorded at 2 kHz and filtered with 0.4 kHz. Substance administration was performed using a gravitation-driven perfusion system. Here, the oocyte is located in a measuring chamber and exposed to the solvent stream of 10 ml/min. The level in the measuring chamber is monitored and regulated by sucking off the solution using a peristaltic pump.
A general note: In two-electrode clamp one electrode senses voltage and the other passes current.

Assay [4] has as its target T1, human TASK-3. Nature of the assay: Two-electrode voltage clamp analysis of human TASK-3 channels in Xenopus laevis oocytes. Particulars: Xenopus laevis oocytes, two-electrode voltage clamp, room temperature; Table 1A. The protocol: as §3, §4

T2 sequence (O14649 whole entry): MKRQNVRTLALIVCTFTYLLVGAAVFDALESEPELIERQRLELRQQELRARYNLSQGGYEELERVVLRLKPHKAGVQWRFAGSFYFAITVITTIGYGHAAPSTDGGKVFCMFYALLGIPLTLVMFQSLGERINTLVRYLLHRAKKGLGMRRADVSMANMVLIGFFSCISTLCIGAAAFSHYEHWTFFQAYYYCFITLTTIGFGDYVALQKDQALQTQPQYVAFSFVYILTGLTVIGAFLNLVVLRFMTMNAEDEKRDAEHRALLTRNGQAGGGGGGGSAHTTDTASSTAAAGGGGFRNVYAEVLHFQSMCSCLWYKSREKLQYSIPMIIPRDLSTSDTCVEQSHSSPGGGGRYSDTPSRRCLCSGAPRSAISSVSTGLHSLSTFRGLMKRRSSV
T1 sequence (Q9NPC2 whole entry): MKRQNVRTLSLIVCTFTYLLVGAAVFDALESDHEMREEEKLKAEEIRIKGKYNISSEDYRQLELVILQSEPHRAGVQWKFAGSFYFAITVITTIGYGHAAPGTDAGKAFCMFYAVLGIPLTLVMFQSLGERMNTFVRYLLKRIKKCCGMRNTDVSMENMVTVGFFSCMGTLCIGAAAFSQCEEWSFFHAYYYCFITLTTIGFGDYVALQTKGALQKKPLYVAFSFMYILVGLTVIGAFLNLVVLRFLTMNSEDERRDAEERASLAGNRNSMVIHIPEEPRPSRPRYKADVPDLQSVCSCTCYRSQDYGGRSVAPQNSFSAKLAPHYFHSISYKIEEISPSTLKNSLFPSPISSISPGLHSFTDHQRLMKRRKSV

For the compound `O=C(C1CCCC1)N1CCN(Cc2c(-c3ccc(Br)cc3)nc3ccccn23)CC1` [Example 1, (4-{[2-(4-Bromophenyl)imidazo[,2-a]pyridin-3-yl]methyl}piperazin-1-yl)(cyclopentyl)methanone], the IC50 in assay [1] stood at 17 nM; in assay [2], 77 nM; in assay [3], 7.9 ± 0.5 nM; in assay [4], 1.04 ± 0.23 nM.

For the compound `O=C(c1ccccc1F)N1CCN(Cc2c(-c3ccc(Br)cc3)nc3ccccn23)CC1` [Example 4, (4-{[2-(4-Bromophenyl)imidazo [1,2-a]pyridin-3-yl]methyl}piperazin-1-yl)(2-fluorophenyl)methanone], the IC50 worked out at 46 nM in assay [1], 172 nM in assay [2], 9.7 ± 0.9 nM in assay [3] and 15 ± 2.1 nM in assay [4].

Turning to `COc1cccc(C(=O)N2CCN(Cc3c(-c4ccc(C(C)C)cc4)nc4ccccn34)CC2)n1` [Example 55], the IC50 in assay [1] was determined as 141 nM; in assay [2] it was 490 nM; in assay [3], 45 ± 6.7 nM; in assay [4] it was 79.6 ± 10.8 nM.

For `O=C(C1CCCC1)N1CCN(Cc2c(-c3ccc(Cl)cc3)nc3ccccn23)CC1` [Example 2, (4-{[2-(4-Chlorophenyl)imidazo [1,2-a]pyridin-3-yl]methyl}piperazin-1-yl)(cyclopentyl)methanone], the IC50 was determined as 20 nM in assay [1], 63 nM in assay [2], 2.8 ± 1.1 nM in assay [3] and 21.8 ± 2.1 nM in assay [4].

For the compound `COc1cccc(C(=O)N2CCN(Cc3c(-c4ccc(Br)cc4)nc4ccccn34)CC2)n1` [Example 47], the IC50 in assay [1] amounted to 18 nM; in assay [2] it was 140 nM; in assay [3] it was 4.9 ± 0.4 nM; in assay [4] it was 2.3 ± 0.3 nM.
